Experimental data reported in PMC5149032, “Secondary Metabolites and Biological Activities of Talaromyces sp. LGT-2, an Endophytic Fungus from Tripterygium Wilfordii” (Iranian Journal of Pharmaceutical Research : IJPR, 2016).

Biological target: monoamine oxidase (MAO), isoform not stated
Assay: MAO inhibition assay (procedure cited to earlier paper; enzyme source not given)
Format: biochemical

O=CN/C=C\c1ccc(O)cc1 [compound 11, (Z)-N-(4-hydroxystyryl)formamide]
IC50: 61 µM
